The nature of the experiment: Inhibition of human SphK2 expressed in Saccharomyces cerevisiae KYA1 assessed as yeast growth measured after 24 hrs.
Consider `N=C(N)N1CCC[C@H]1c1nc(-c2ccc(OCc3ccc(C(F)(F)F)cc3)c(C3CC3)c2)no1`, for which the EC50 is 50 nM.
Consider `CC(C)c1cc(-c2noc([C@@H]3CCCN3C(=N)N)n2)ccc1OCc1ccc(C(F)(F)F)cc1`, for which the concentration giving a half-maximal response (EC50) amounted to 32 nM.
The same measure for `C=CCc1cc(-c2noc([C@@H]3CCCN3C(=N)N)n2)ccc1OCc1ccc(C(F)(F)F)cc1`: 84 nM; for `CC(C)(C)c1cc(-c2noc([C@@H]3CCCN3C(=N)N)n2)ccc1OCc1ccc(C(F)(F)F)cc1`: 73 nM; for `N=C(N)N1CCC[C@H]1c1nc(-c2ccc(OCc3ccc(C(F)(F)F)cc3)c(C(F)(F)F)c2)no1`: 59 nM.
For `CCc1cc(-c2noc([C@@H]3CCCN3C(=N)N)n2)ccc1OCc1ccc(C(F)(F)F)cc1` the value was 146 nM; for `CCCc1cc(-c2noc([C@@H]3CCCN3C(=N)N)n2)ccc1OCc1ccc(C(F)(F)F)cc1`, 37 nM.

(Values after BindingDB's records for doi:10.1021/acs.jmedchem.9b01508 (Virginia Tech, 2020).)
